Measurements reported in patent US6147097A, “Imidazole derivatives as anti-HIV agents” (Shionogi & Co., Ltd., priority 1994, dated 2000).
Values after ≈ are worked out from the molar mass of the structure shown. Like-named read-outs stand apart in the source and are kept apart here.

What was measured:
HIV (HTLV-IIIB strain) = assay: microbe, parasite or virus in culture; format: cell-based
Protocol: The anti-HIV activity of each of the compounds produced in Examples was assayed by the following procedures. […] On the other hand, the test compound was diluted with the above culture medium to predetermined concentrations and distributed in 50 μl aliquots into a 96-well microtiter plate. Then, d suspension of MT-4 cells was added in 100 μl aliquots (3.5×10^4 cells per well) and then the above HIV-containing supernatant diluted with the above culture medium was added, 50 μl (60 pfu (plaque forming units)) per well. (2) The plate was incubated in a CO2 incubator at 37° C. for 5 days. Then, 30 μl/well of 3-(4,5-dimethyl thiazol-2-yl)-2,5-diphenyltetrazolium bromide (MTT) (5 mg/ml PBS) was added and the incubation was further continued for 1 hour. The surviving cells reducing MTT yield precipitation of formazan. Therefore, 150 μl portions of the culture supernatant were removed from all wells and, instead, 150 μl of a solution (10% Triton X-100 and 0.4% (v/v) HCl-added isopropyl alcohol) was added. The plate was shaken on a plate mixer to dissolve the formazan.

[1] = cytotoxicity in MT-4 cells (MTT, culture medium in place of HIV); format: cell-based; conditions: human
Protocol: The anti-HIV activity of each of the compounds produced in Examples was assayed by the following procedures. (1) Human T cell line MOLT-4 clone 8 persistently infected by HIV (HTLV-IIIB strain) was cultured in an RPMI-1640 medium supplemented with 10% fetal calf serum, the culture supernatant was filtered, and the titer of virus was determined; the culture supernatant was stored at -80° C. On the other hand, the test compound was diluted with the above culture medium to predetermined concentrations and distributed in 50 μl aliquots into a 96-well microtiter plate. Then, d suspension of MT-4 cells was added in 100 μl aliquots (3.5×10^4 cells per well) and then the above HIV-containing supernatant diluted with the above culture medium was added, 50 μl (60 pfu (plaque forming units)) per well. (2) The plate was incubated in a CO2 incubator at 37° C. for 5 days. Then, 30 μl/well of 3-(4,5-dimethyl thiazol-2-yl)-2,5-diphenyltetrazolium bromide (MTT) (5 mg/ml PBS) was added and the incubation was further continued for 1 hour. The surviving cells reducing MTT yield precipitation of formazan. Therefore, 150 μl portions of the culture supernatant were removed from all wells and, instead, 150 μl of a solution (10% Triton X-100 and 0.4% (v/v) HCl-added isopropyl alcohol) was added. The plate was shaken on a plate mixer to dissolve the formazan. The OD of formazan was measured with a microreader at 560 nm arid 690 nm (reference wavelength) and the result was compared with that of control.
The cytotoxicity of each of the compounds produced in Examples was assayed. In place of the HIV-containing supernatant (the virus suspension) in (1) in Test Example 1, 50 μl of the culture medium was added to each well, and the cytotoxicity was determined in the same manner as that for (2) in Test Example 1.

[2] = biological target: T1, purified recombinant HIV-1 reverse transcriptase (Human immunodeficiency virus type 1 group M subtype B, UniProt P04585); assay: reverse transcriptase inhibition, poly(rA)/(dT) template primer, [3H]dTTP uptake; format: biochemical
T1 construct: purified recombinant HIV-1 reverse transcriptase; made in house; host or cells: Escherichia coli
Protocol: The reverse transcriptase activity of each of the compounds synthesized in Examples was assayed by the following procedures.
Using the purified recombinant HIV-1 reverse transcriptase RT, E.C. 2.7.7.49) obtained by expression in Escherichia Coli, a 96-well plate assay system was established for assaying a large number of samples. The RT inhibitory activity was determined as follows. To 11 μl of a solution of the test inhibitor in water or MSO was added 100 μl of a reaction mixture (0.1 unit/100 μl RT, 50 mM Tris-HCl pH 8.3, 150 mM KCl, 10 mM MgCl2, 3 mM dithiothreitol, 0.1% Nonidet P-40, 10 μg/ml. poly(rA) and 10 μg/ml (dT)12-1.8 as template and primer, and 4 μM dTTP, 1 μCi/100 μl [^3 H]dTTP as substrate) and the mixture was incubated at 37° C. for 1 hour and, then, immediately cooled on ice. Using a cell harvester, the reaction mixture was transferred to a DEAE-filter mat (LKB-Pharmacia). Then, using the wash line of the cell harvester, the cells were washed twice with 5% Na2 HPO4 /H2 O and once with water and dried at 95° C. for 15 minutes. […] The inhibitory activity was expressed in percent inhibition relative to the uptake on water or DMSO control.

[3] = Human immunodeficiency virus 1, IIIB, MT4, 120 h, MT-4 cells, 60 pfu HIV per well, 37° C., 5 days, MTT, Tables 1 and 2, read-out: EC50
[4] = MT-4 cells, no virus, 37° C., 5 days, MTT, Table 3, read-out: CC50
[5] = Human immunodeficiency virus 1, IIIB, MT4, 120 h

Molecule	EC50 (HIV (HTLV-IIIB strain); [3])	CC50 at 120 h [1, 4]	IC50 [2]	CC50 at 120 h ([1]; mt-4 cells)	EC50 (HIV (HTLV-IIIB strain); [5])	EC50 (HIV (HTLV-IIIB strain); MT-4 cells, 60 pfu HIV per well, 37° C., 5 days, MTT, Tables 1 and 2)	RT IC50 ([2]; pH 8.3, 37° C., 1 hour, Tables 5 and 6)
CC(C)c1nc(CC#N)n(C)c1Sc1cc(Cl)cc(Cl)c1 [Compound I-80a, [5-(3,5-dichlorophenylthio)-4-isopropyl-1-methyl-1H-imidazol-2-yl]acetonitrile]	0.002 to 0.004 µg/mL (≈ 0.00588 to 0.0118 µM)	100 µg/mL (≈ 294 µM)	0.323 µM	–	–	–	–
CC(C)c1nc(CNS(C)(=O)=O)n(C)c1Sc1cc(Cl)cc(Cl)c1 [Compound I-87, 5-(3,5-dichlorophenylthio)-4-isopropyl-2-methanesulfonylaminomethyl-1-methyl-1H-imidazole]	0.5 to 1 µg/mL (≈ 1.22 to 2.45 µM)	10 to 100 µg/mL (≈ 24.5 to 245 µM)	> 245 µM	–	–	–	–
CC(=O)OCc1nc(C(C)C)c(Sc2cc(Cl)cc(Cl)c2)n1C [Compound I-40, [5-(3,5-dichlorophenylthio)-4-isopropyl-1-methyl-1H-imidazol-2-yl]methyl acetate]	0.016 µg/mL	12.5 to 25 µg/mL	28.7 µM	–	–	–	–
COC(=O)C(C)c1nc(C)n(C)c1Sc1cc(C)cc(C)c1 (centres unmarked) [Compound I-96, methyl 2-[1,2-dimethyl-5-(3,5-dimethylphenylthio)-1H-imidazol-4-yl]propionate]	0.03 µg/mL (≈ 0.0942 µM)	10 to 100 µg/mL (≈ 31.4 to 314 µM)	14.4 µM	–	–	–	–
CC(C)c1nc(CO)n(C)c1Sc1cccc([N+](=O)[O-])c1 [Compound I-14, [4-isopropyl-1-methyl-5-(3-nitrophenylthio)-1H-imidazol-2-yl]methanol]	0.03 µg/mL (≈ 0.0976 µM)	12.5 to 25 µg/mL (≈ 40.7 to 81.3 µM)	4.23 µM	–	–	–	–
CC(C)c1nc(CNCCO)n(C)c1Sc1cc(Cl)cc(Cl)c1 [Compound I-79, 2-{[5-(3,5-dichlorophenylthio)-4-isopropyl-1-methyl-1H-imidazol-2-yl]methylamino} ethanol]	0.25 µg/mL (≈ 0.668 µM)	1 to 10 µg/mL (≈ 2.67 to 26.7 µM)	34.5 µM	–	–	–	–
CC(C)c1nc(CN=C(N)N)n(C)c1Sc1cc(Cl)cc(Cl)c1 [Compound I-86, 2-diaminomethylenemethylaminomethyl-5-(3,5-dichlorophenylthio)-4-isopropyl-1-methylimidazole]	1 µg/mL (≈ 2.69 µM)	–	33.6 µM	1 µg/mL (≈ 2.69 µM)	–	–	–
CC(C)c1nc(CCCOC(N)=O)n(CCOC(N)=O)c1Sc1cc(Cl)cc(Cl)c1 [Compound I-151, 1-(2-carbamoyloxyethyl)-2-(3-carbamoyloxypropyl)-5-(3,5-dichlorophenylthio)-4-isopropyl-1H-imidazole]	0.0006 µg/mL (≈ 0.00126 µM)	–	6.1 µM	50 to 100 µg/mL (≈ 105 to 210 µM)	–	–	–
CCn1c(CO)nc(C(C)C)c1Sc1cccc([N+](=O)[O-])c1 [Compound I-23, [1-ethyl-4-isopropyl-5-(3-nitrophenylthio)-1H-imidazol-2-yl]methanol]	0.004 µg/mL (≈ 0.0124 µM)	25 µg/mL (≈ 77.8 µM)	0.996 µM	–	–	–	–
CC(C)c1c(Sc2cccc(Cl)c2)nc(COC(N)=O)n1C [Compound I-59, 2-carbamoyloxymethyl-4-(3-chlorophenylthio)-5-isopropyl-1-methylimidazole]	–	12.5 to 25 µg/mL (≈ 36.8 to 73.6 µM)	> 294 µM	–	12.5 µg/mL (≈ 36.8 µM)	–	–
CC(C)c1nc(CO)n(C)c1Sc1cc(Cl)cc(Cl)c1 [Compound I-8, [5-(3,5-dichlorophenylthio)-4-isopropyl-1-methyl-1H-imidazol-2-yl]methanol]	0.016 µg/mL (≈ 0.0483 µM)	12.5 µg/mL (≈ 37.7 µM)	3.02 µM	–	–	–	–
Cc1nc(C(C)C)c(Sc2cc(Cl)cc(Cl)c2)n1C [Compound I-1, 5-(3,5-dichlorophenylthio)-1,2-dimethyl-4-isopropyl-1H-imidazole]	0.008 µg/mL (≈ 0.0254 µM)	6.3 to 12.5 µg/mL (≈ 20 to 39.6 µM)	3.81 µM	–	–	–	–
CC(C)c1nc(CO)n(CC(F)(F)F)c1Sc1cc(Cl)cc(Cl)c1 [Compound I-33, 2-[5-(3,5-dichlorophenylthio)-4-isopropyl-1-(1,1,1-trifluoroethyl)-1H-imidazol-2-yl]methanol]	0.016 µg/mL (≈ 0.0401 µM)	10 to 100 µg/mL (≈ 25 to 250 µM)	9.77 µM	–	–	–	–
CC(Cn1c(COC(N)=O)nc(C(C)C)c1Sc1cc(Cl)cc(Cl)c1)OC(N)=O (centres unmarked) [Compound I-152, 2-carbamoyloxymethyl-1-(2-carbamoyloxypropyl)-5-(3,5-dichlorophenylthio)-4-isopropyl-1H-imidazole]	< 0.008 µg/mL	–	3.25 µM	12.5 to 25 µg/mL (≈ 27.1 to 54.2 µM)	–	–	–
CC(C)c1nc(CO)n(CCc2ccccn2)c1Sc1cc(Cl)cc(Cl)c1 [Compound 112a, 5-(3,5-dichlorophenylthio)-4-isopropyl-2-hydroxymethyl-1-(2-(2-pyridyl)ethyl)-1H-imidazole]	0.008 µg/mL (≈ 0.0189 µM)	–	2.27 µM	6.3 µg/mL (≈ 14.9 µM)	–	–	–
CC(C)c1nc(CO)n(Cc2ccc[nH]c2=O)c1Sc1cc(Cl)cc(Cl)c1 [Compound 116b, 5-(3,5-dichlorophenyl-thio)-2-hydroxymethyl-1-(2(1H)-pyridon-3-ylmethyl)-4-isopropyl-1H-imidazole]	0.016 µg/mL (≈ 0.0377 µM)	–	7.54 µM	50 µg/mL (≈ 118 µM)	–	–	–
CC(C)c1nc(COC(N)=O)n(Cc2cccnc2)c1Sc1cc(Cl)cc(Cl)c1 [Compound I-92, 2-carbamoyloxymethyl-5-(3,5-dichlorophenylthio)-4-isopropyl-1-(pyridin-3-yl)methyl-1H-imidazole]	–	–	0.775 µM	12.5 to 24 µg/mL (≈ 27.7 to 53.2 µM)	0.001 µg/mL (≈ 0.00222 µM)	–	–
CCCn1c(COC(N)=O)nc(C(C)C)c1Sc1cc(Cl)cc(Cl)c1 [Compound I-51, 2-carbamoyloxymethyl-5-(3,5-dichlorophenylthio)-4-isopropyl-1-n-propyl-1H-imidazole]	0.003 to 0.005 µg/mL (≈ 0.00746 to 0.0124 µM)	6.3 to 12.5 µg/mL (≈ 15.7 to 31.1 µM)	0.944 µM	–	–	–	–
CC(C)c1nc(CO)n(Cc2ccccc2)c1Sc1cccc([N+](=O)[O-])c1 [Compound I-21, [1-benzyl-4-isopropyl-5-(3-nitrophenylthio)-1H-imidazol-2-yl]methanol]	0.008 µg/mL (≈ 0.0209 µM)	6.3 to 12.5 µg/mL (≈ 16.4 to 32.6 µM)	7.56 µM	–	–	–	–
CCCCn1c(CO)nc(C(C)C)c1Sc1cc(Cl)cc(Cl)c1 [Compound I-15, [1-n-butyl-5-(3,5-dichlorophenylthio)-4-isopropyl-1H-imidazol-2-yl]methanol]	0.005 to 0.01 µg/mL (≈ 0.0134 to 0.0268 µM)	6.3 to 12.5 µg/mL (≈ 16.9 to 33.5 µM)	2.01 µM	–	–	–	–
CC(C)c1nc(CCO)n(CCO)c1Sc1cc(Cl)cc(Cl)c1 [Compound 131c, 2-(5-(3,5-dichlorophenylthio)-2-(2-hydroxyethyl)-4-isopropyl-1H-imidazol-1-yl)ethanol]	< 0.008 µg/mL	–	2.58 µM	6.3 to 12.5 µg/mL (≈ 16.8 to 33.3 µM)	–	–	–
CC(C)c1nc(CCOC(N)=O)n(Cc2ccccc2[N+](=O)[O-])c1Sc1cc(Cl)cc(Cl)c1 [Compound 128c, 2-(2-Carbamoyloxyethyl)-5-(3,5-dichlorophenylthio)-4-isopropyl-1-(o-nitrobenzyl)-1H-imidazole]	0.25 µg/mL (≈ 0.491 µM)	–	> 196 µM	6.3 to 12.5 µg/mL (≈ 12.4 to 24.5 µM)	–	–	–
2-aminoethyl-1-n-butyl-5-(3,5-dichlorophenylthio)-4-isopropyl-1H-imidazole [Compound I-68]	–	–	–	–	–	0.016 µg/mL	0.61 µg/mL
